Literature values, collected in patent US9457059B2, “Compositions and methods for treating renal failure” (La Jolla Pharmaceutical Company, priority 2013, dated 2016).

What was measured:
[1] = system: patients with cirrhosis and ascites
[2] = system: patients with cirrhosis and ascites; remark: listed apart in the source

C[C@H](CS)C(=O)N1CCC[C@H]1C(=O)O [captopril]
sodium excretion and urinary output [1]: significantly reduced both sodium excretion and urinary output

Asp-Arg-Val-Tyr-Ile-His-Pro-Phe (DRVYIHPF) [angiotensin II, peptide hormone that regulates blood pressure via vasoconstriction and sodium reabsorption]
tolerability ([2]; use in patients with cirrhosis and ascites): well-tolerated

Asp-Arg-Val-Tyr-Ile-His-Pro-Phe [angiotensin II, peptide hormone that regulates blood pressure via vasoconstriction and sodium reabsorption]
increase in urine output and sodium excretion compared with norepinephrine ([2]; Laragh et al., versus norepinephrine): much more pronounced than those produced by norepinephrine
natriuresis and urine output ([2]; patients with cirrhosis and ascites, no renal failure): induces marked natriuresis and urine output
increase in sodium excretion compared with norepinephrine ([2]; second study, Ames et al., versus norepinephrine): greater increase in sodium excretion compared to norepinephrine
